# Test results as given in the supplement of paper PMC10307832.
# Tests used:
# Assay in all cases: relative viability (nuclei count vs DMSO), 5 days (fraction); higher = more cells survive
# 4EGI-1 + Crizotinib = compound: O=C(O)C(Cc1ccccc1[N+](=O)[O-])=NNc1nc(-c2ccc(Cl)c(Cl)c2)cs1 (mixture of isomers) [4EGI-1] + C[C@@H](Oc1cc(-c2cnn(C3CCNCC3)c2)cnc1N)c1c(Cl)ccc(F)c1Cl [Crizotinib] (partner 1 µM)
# How it was run: (§1)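 Relative viability equals treated-well nuclei counts divided by vehicle-well nuclei counts. Counts came from 4× images of lung cancer cell lines grown in 1536-well plates for 5 days after pin-tool dosing on the day after seeding. Dosing used one drug alone or a fixed anchor-drug dose plus five library-drug doses (not always all listed) in √10 steps, and values are medians of duplicate plates.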
# XMD8-85 + AZD7762 = compound: CN1CCN(CC1)C2=CC(=C(C=C2)NC3=NC=C4C(=N3)N(C5=CC=CC=C5C(=O)N4C)C)OC [XMD8-85] + NC(=O)Nc1cc(-c2cccc(F)c2)sc1C(=O)N[C@H]1CCCNC1 [AZD7762] (partner 0.2 µM)
# How it was run: as §1
# 4EGI-1 + Foretinib = compound: O=C(O)C(Cc1ccccc1[N+](=O)[O-])=NNc1nc(-c2ccc(Cl)c(Cl)c2)cs1 (mixture of isomers) [4EGI-1] + COc1cc2c(Oc3ccc(NC(=O)C4(C(=O)Nc5ccc(F)cc5)CC4)cc3F)ccnc2cc1OCCCN1CCOCC1 [Foretinib] (partner 0.25 µM)
# How it was run: as §1
# XMD8-85 + Olaparib = compound: CN1CCN(CC1)C2=CC(=C(C=C2)NC3=NC=C4C(=N3)N(C5=CC=CC=C5C(=O)N4C)C)OC [XMD8-85] + O=C(c1cc(Cc2n[nH]c(=O)c3ccccc23)ccc1F)N1CCN(C(=O)C2CC2)CC1 [Olaparib] (partner 8 µM)
# How it was run: as §1
Cell Line,relative viability (4EGI-1 + Crizotinib; first compound 0.5 µM),relative viability (4EGI-1 + Crizotinib; first compound 1.581 µM),relative viability (4EGI-1 + Crizotinib; first compound 5 µM),relative viability (4EGI-1 + Crizotinib; first compound 15.81 µM),relative viability (4EGI-1 + Crizotinib; first compound 50 µM),relative viability (XMD8-85 + AZD7762; first compound 0.08 µM),relative viability (XMD8-85 + AZD7762; first compound 0.253 µM),relative viability (XMD8-85 + AZD7762; first compound 0.8 µM),relative viability (XMD8-85 + AZD7762; first compound 2.53 µM),relative viability (XMD8-85 + AZD7762; first compound 8 µM),relative viability (4EGI-1 + Foretinib; first compound 0.5 µM),relative viability (4EGI-1 + Foretinib; first compound 1.581 µM),relative viability (4EGI-1 + Foretinib; first compound 5 µM),relative viability (4EGI-1 + Foretinib; first compound 15.81 µM),relative viability (4EGI-1 + Foretinib; first compound 50 µM),relative viability (XMD8-85 + Olaparib; first compound 0.08 µM),relative viability (XMD8-85 + Olaparib; first compound 0.253 µM),relative viability (XMD8-85 + Olaparib; first compound 0.8 µM),relative viability (XMD8-85 + Olaparib; first compound 2.53 µM),relative viability (XMD8-85 + Olaparib; first compound 8 µM)
NCI-H727,1.7,0.926,0.716,0.588,0.343,0.768,0.619,0.465,0.576,0.42,1.07,1.07,0.767,1.19,0.324,0.684,0.674,0.867,0.725,0.684
NCI-H596,1.15,0.846,1.13,0.878,0.557,1.18,0.944,1.06,1.1,0.966,0.856,0.644,0.796,0.757,0.75,0.696,0.602,0.702,0.49,0.467
NCI-H2347,0.841,0.667,0.753,0.567,0.556,0.686,,0.732,,0.704,0.989,0.835,1.11,0.806,0.933,0.55,0.598,0.617,0.619,0.559
NCI-H2126,1.03,1.05,1.03,1.03,0.777,1.06,1.12,0.962,1.05,1.06,1.34,1.55,1.28,1.07,0.785,0.958,0.897,0.954,0.889,0.94
HCC-78,0.365,0.258,0.371,0.286,0.373,0.556,0.582,0.728,1.13,0.499,0.636,,0.547,0.416,0.525,0.916,0.843,0.99,0.814,0.775
HARA,1.06,1.07,1.03,0.906,0.212,0.314,0.269,0.303,0.283,0.273,0.979,0.806,0.965,0.76,0.175,1.28,0.581,0.698,0.387,0.399
A-427,1.02,0.728,0.791,0.822,0.424,,0.81,0.675,0.63,0.478,1.16,0.944,0.983,0.867,0.646,0.751,0.781,0.864,0.785,0.57
NCI-H441,0.968,0.472,0.72,0.461,0.213,1.21,1.01,1.12,1.11,0.562,0.909,0.929,1.01,0.882,0.447,0.405,0.553,0.421,0.538,0.371
PC-3 [JPC-3],0.998,0.883,0.876,,0.55,,0.782,0.82,0.712,0.411,1.09,0.984,0.967,,0.463,1.11,1.22,1.25,1.16,0.978
NCI-H1915,0.924,0.62,0.847,0.907,0.477,0.735,0.71,0.683,,0.725,1.13,0.858,1.08,1.07,0.928,0.291,0.263,0.252,0.222,0.185
LOU-NH91,0.788,,0.72,0.508,0.55,0.678,0.763,0.806,0.835,0.59,0.944,,0.995,0.545,0.906,0.944,0.922,0.917,0.92,0.695
NCI-H1666,1.12,1.03,1.19,0.632,0.253,0.836,0.87,,1.01,0.694,1.01,0.924,1.04,0.671,0.417,0.697,0.716,0.742,0.773,
EKVX,1.01,0.759,1.14,0.874,0.936,0.685,0.742,0.67,0.729,0.646,1.08,0.121,0.925,0.686,0.815,0.756,0.83,0.998,0.898,0.901
HOP-62,0.667,,0.938,0.89,0.574,0.497,0.708,0.523,,0.421,1.17,0.716,1.1,1.17,0.656,0.136,0.55,0.384,0.287,0.231
NCI-H1734,0.817,0.695,0.72,0.605,0.437,0.562,0.534,0.529,0.626,,1.02,0.803,0.971,0.827,0.472,0.672,0.616,0.629,,0.508
LCLC-103H,1.05,0.926,0.937,0.857,1.05,0.769,0.825,0.811,0.851,0.781,0.791,0.675,0.764,0.733,0.367,0.84,0.759,0.768,0.793,0.665
EMC-BAC-2,0.776,0.594,0.706,0.627,0.306,1.16,1.03,1.04,1.1,0.789,1.2,0.907,1.04,0.936,0.984,0.498,0.465,0.487,0.477,0.417
